Measured values as given in US11471502B2, “Neuroprotective peptide” (UNIVERSITY COLLEGE CARDIFF C[…], priority 2017, dated 2022).
Entries after “also recorded” stand apart in the source; their conditions may differ.

Tests used:
[1] = In vivo time course and dose response of ERK activation in dorsal striatum; parameters: species or system mouse; conditions: mouse, in vivo, ip; 20 mg/kg i.p.; read-out: estimated half-life (of RB5 activity on pERK in brain) (converted)
Procedure: (§1) Mice injected with RB5 were perfused at different time points, whereas scramble-injected mice were perfused after 1 hour. Immunohistochemical analysis was carried out against phospho-p44/p42 MAP kinase (Thr202/Tyr204). […] One-way ANOVA F5,29=9.137, p<0.0001. Bonferroni's post-hoc test, SCR vs RB5 1 h: p<0.001, SCR vs RB5 6 h: p<0.001. […] Immunohistochemical analysis was carried out against phospho-p44/p42 MAP kinase (Thr202/Tyr204). […] One-way ANOVA: F5,29=7.097, p<0.001. Bonferroni's post-hoc test, SCR vs RB5 20 mg/kg: p<0.05, SCR vs RB5 10 mg/kg: p<0.01. Data are expressed as Mean±SEM. c) RB5 brain levels measured with mass spectrometry at different hours after a single i.p. administration of 20 mg/kg. High levels of RB5 were detected up to 6 hrs (one-way ANOVA, F4,18=17.469, P<0.0001, Bonferroni's post-hoc, SCR vs RB5 1 h P<0.01, SCR vs RB5 3 h P<0.0001, SCR vs RB5 6 h P<0.05). […] White star P<0.0001, P<0.001, P<0.01, P<0.05.
(§2) 1 h after CPP-RB5/CPP-SCR (20 mg/kg, i.p.) mice were anaesthetized and perfused via intracardiac infusion of ice-cold 4% PFA. Brains were rapidly extracted, post-fixed overnight and transferred to 25% buffered sucrose for 24 h. Coronal sections were cut at 30 μm thickness on a freezing microtome and stored in a cryoprotective solution at −20° C. until they were processed for immunohistochemistry. Free-floating sections were incubated with primary antibodies against anti-phospho-p44/42 MAP kinase (Thr202/Tyr204), anti-phospho-Elk-1 (Ser383), anti-phospho-Kv4.2 (Thr607)-R, anti-phospho-MSK-1, anti-phospho-MEK-1, c-Fos and Tyrosine Hydroxylase overnight at 4° C. Sections were then incubated with biotinylated goat anti-rabbit IgG (1:200, Vector Labs) for 2 h. Detection of the bound antibodies was carried out using a standard peroxidase-based method (ABC-kit, Vectastain, Vector Labs), followed by a DAB and H2O2 solution. Quantification of positive neurons were counted from striatum in 2-3 sections per mouse, bilaterally. Sample areas were visualized under a 20× objective in a Leica DM IRB microscope by a blind investigator to condition and counts per region were averaged across the sections using the ImageJ software.

[2] = test system: phospho-p44/p42 MAP kinase (Thr202/Tyr204); test: as above; parameters: species or system mouse; conditions: dorsal striatum
Procedure: as §1, §2

[3] = RB5 brain levels by HPLC-MS/MS after single i.p. administration; format: in vivo, mouse; conditions: single i.p. 20 mg/kg, mass spectrometry
Procedure: Bioavailability of RB5 in the mouse brain was determined at different time intervals (1, 3, 6, 12 h) after a single i.p. administration of 20 mg/kg. RB5 was then quantified in mouse brain using HPLC-MS/MS. Brain samples were homogenized with 1:4 w/v of 50% acetonitrile, 5% TFA in water with an homogenizer ultra-turrax and then centrifuged at 13000 rpm for 10 min at 4° C. The supernatant was collected and centrifuged at 13000 rpm for 2 minutes at 4° C. The supernatant was then collected in ice, extracted using Sep-Pak cartridges C18, lyophilised and kept at 4° C. before HPLC-MS/MS analysis. Immediately before the analysis samples were suspended in 100 μL of 0.1% HCOOH in water/8% acetonitrile in auto-sampler vials.
HPLC-MS/MS analysis was performed using a system consisting of an Agilent 1200 series HPLC system coupled with an Agilent 6410 Triple Quadruple mass spectrometer. Mass Hunter Workstation v. […] The quantification of mouse brain levels of RB5 and scramble peptides was carried out using an internal standard curve with peptide concentrations ranging from 0.1 to 4 ng per μl. […]
Peptides were then detected on an Agilent 6410 QQQ mass spectrometer using the following parameters: positive ion mode, 5 kV capillary voltage, cone voltage 500 V, gas flow rate 8 L/min at 350° C., nebulizer gas pressure 40 PSI at 350° C., well time 75 msec and Q1 and Q3 set to unit resolution.

Tg2576 mice = test: Tg2576 mouse model of Alzheimer's Disease, neuroprotection; format: in vivo; conditions: 20 mg/kg i.p., 7 days
Procedure: Two-way ANOVA Bonferroni post-hoc comparison **p<0.01***p<0.001.
The genetic model of Alzheimer's Disease Tg2576 and their WT controls have been treated for 7 days with RB5/scramble peptide (20 mg/kg, i.p).

zQ175 mice = test: Nose poke training (FR1) in 9-hole operant boxes, zQ175 model of Huntington's Disease; format: in vivo, mouse
Procedure: WT and zQ175 mice underwent daily 20 minutes nose poke training for 10 consecutive days (days 1-10) on a simple fixed ratio (FR1) schedule of reinforcement. Starting from day 11 mice received one administration of RB5 (20 mg/kg. i.p.) 1 h before the nose poke training. […] White star P<0.0001.
Operant testing was conducted in 16 9-hole operant boxes. Each operant box contains a horizontal array of nine holes with infrared beams localised to the front of each hole to detect nose pokes. A peristaltic pump delivers liquid reinforcement (strawberry milk) into a magazine at the front of the box.
A week before starting the training, mice undergo water restriction for 18 hours/day and are kept under this regimen throughout the experimental procedures. Mice are taught to nose poke on a simple fixed ratio (FR1) schedule of reinforcement: to obtain reward, mice are required to respond to a stimulus light in the central hole via a single nose poke. Mice are trained daily on this program during 20 minutes sessions for 10 days (training phase). Once trained, animals were subdivided in 4 groups and injected with RB5 or scramble (10 mg/kg, i.p.) peptides 1 hour before being tested on FR1 schedule for other 9 days.

Question: For `CSCC[C@H](NC(=O)[C@H](CCC(=O)O)NC(=O)[C@@H](NC(=O)[C@H](CCC(=O)O)NC(=O)CNC(=O)[C@@H]1CCCN1C(=O)[C@@H](NC(=O)CNC(=O)[C@@H]1CCCN1C(=O)CNC(=O)[C@@H](NC(=O)CNC(=O)[C@H](CCC(=O)O)NC(=O)[C@@H](NC(=O)[C@H](CCCNC(=N)N)NC(=O)[C@H](CCCNC(=N)N)NC(=O)[C@@H]1CCCN1C(=O)[C@H](CCC(=O)O)NC(=O)CNC(=O)CNC(=O)CNC(=O)CNC(=O)CNC(=O)[C@H](CCC(N)=O)NC(=O)[C@@H]1CCCN1C(=O)[C@@H]1CCCN1C(=O)[C@H](CCCNC(=N)N)NC(=O)[C@H](CCCNC(=N)N)NC(=O)[C@H](CCCNC(=N)N)NC(=O)[C@H](CCC(N)=O)NC(=O)[C@H](CCCNC(=N)N)NC(=O)[C@H](CCCNC(=N)N)NC(=O)[C@H](CCCCN)NC(=O)[C@H](CCCCN)NC(=O)[C@H](CCCNC(=N)N)NC(=O)CNC(C)=O)[C@@H](C)O)C(C)C)C(C)C)C(C)C)C(=O)N[C@H](C(=O)N[C@@H](CCCCN)C(=O)NCC(=O)N[C@@H](CCC(N)=O)C(=O)N1CCC[C@H]1C(=O)N[C@@H](Cc1ccccc1)C(=O)N[C@@H](CC(=O)O)C(=O)N[C@@H](C(=O)O)C(C)C)C(C)C` [RB5], which half-life [1] is on record?
Answer: Its half-life is 9 h.

Question: And the “time after injection at which phospho-ERK returned to basal levels” value ([2]; 20 mg/kg i.p.)?
Answer: Its value is 12 h.

Question: What about the “time after injection up to which phospho-ERK levels / RB5 activity remained increased” value ([2]; 20 mg/kg i.p.) of the same molecule?
Answer: Its value is “up to 6 h”.

Question: And the pERK dose response ([2]; different doses i.p., 1 hour after injection)?
Answer: The pERK dose response was “both 20 and 10 mg/kg (i.p.) doses are able to elevate pERK; also recorded: dose-dependent manner”.

Question: What about the “time up to which high RB5 brain levels were detected” value [3] of the same molecule?
Answer: Its value is “up to 6 h”.

Question: And the “ERK activation (pERK) in hippocampal CA1 and Dentate Gyrus” value (Tg2576 mice)?
Answer: Its value is “increased pERK; also recorded: significant enhancement of ERK activation”.

Question: And the “pre-apoptotic state (Cleaved Caspase-3 staining)” value (Tg2576 mice)?
Answer: Its value is “reduced the levels of cleaved caspase-3 staining; also recorded: significant reduction of the pre-apoptotic state”.

Question: And the “nose poke performances / responses” value (zQ175 mice; WT and zQ175 female mice, 9 days of RB5 treatment)?
Answer: The value was “significant enhancement of the responses; also recorded: improved performances”.

Question: And the nose poke responding (zQ175 mice; zQ175 female mice, 20 mg/kg i.p. 1 h before training from day 11)?
Answer: Its nose poke responding is “significantly improved”.
